Assay results taken from patent US12576099B2, “Ribose-modified cap analog and use thereof” (Beijing Youcare Kechuang Pharmaceutical Technology Co., Ltd., priority 2024, dated 2026).

Assays:
[1] = Characterization of lipid nanoparticles encapsulating Fluc-mRNA prepared from different cap structures; assay type: physicochemical; details: for Particle size: LNP (YK-009/DSPC/cholesterol/DMG-PEG2000) with Fluc-mRNA transcribed using the named cap analog; for PDI: LNP with Fluc-mRNA transcribed using the named cap analog; for EE: encapsulation efficiency of LNP with Fluc-mRNA transcribed using the named cap analog
Method in brief: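 LNPs of YK-009/DSPC/cholesterol/DMG-PEG2000 (49:10:39.5:1.5) made by microfluidic mixing with Fluc-mRNA in 50 mM citrate pH 4, lipid:mRNA ~15:1 w/w, then ultrafiltered into PBS and 0.2 μm filtered. Size and PDI by DLS (90°, 25 °C, triplicate); encapsulation efficiency by RiboGreen assay.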

T7 RNA polymerase = T7 RNA polymerase (Escherichia phage T7, UniProt P00573); assay: In vitro transcription yield of mRNA using cap analogs; assay type: biochemical; details: for Yield per unit template: in vitro transcription, 1 μg DNA template, 37° C., 2 hours
Sequence of T7 RNA polymerase (P00573 whole entry): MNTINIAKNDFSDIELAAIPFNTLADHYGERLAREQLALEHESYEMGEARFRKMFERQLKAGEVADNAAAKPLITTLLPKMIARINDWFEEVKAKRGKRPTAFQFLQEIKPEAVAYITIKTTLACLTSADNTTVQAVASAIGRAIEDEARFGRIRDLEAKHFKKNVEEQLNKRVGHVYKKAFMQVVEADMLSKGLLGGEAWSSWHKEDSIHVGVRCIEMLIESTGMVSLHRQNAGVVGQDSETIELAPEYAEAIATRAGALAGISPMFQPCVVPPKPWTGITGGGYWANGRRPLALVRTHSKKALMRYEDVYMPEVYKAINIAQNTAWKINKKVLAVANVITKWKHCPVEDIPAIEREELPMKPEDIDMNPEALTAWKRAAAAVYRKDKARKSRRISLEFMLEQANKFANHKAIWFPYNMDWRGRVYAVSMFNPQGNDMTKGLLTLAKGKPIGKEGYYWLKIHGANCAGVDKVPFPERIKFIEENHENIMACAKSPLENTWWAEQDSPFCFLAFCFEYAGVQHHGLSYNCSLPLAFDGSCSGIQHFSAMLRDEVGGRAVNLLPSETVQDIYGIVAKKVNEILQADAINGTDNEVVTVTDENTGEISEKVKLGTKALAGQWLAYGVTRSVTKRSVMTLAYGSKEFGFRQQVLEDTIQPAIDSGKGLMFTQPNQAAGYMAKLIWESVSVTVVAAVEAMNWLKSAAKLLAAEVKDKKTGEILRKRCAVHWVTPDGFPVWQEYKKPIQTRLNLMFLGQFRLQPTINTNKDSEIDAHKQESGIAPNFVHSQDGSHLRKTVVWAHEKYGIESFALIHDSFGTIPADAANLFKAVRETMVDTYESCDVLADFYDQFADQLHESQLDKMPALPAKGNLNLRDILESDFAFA
Method in brief: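 Linearized plasmid template transcribed by T7 RNA polymerase with NTPs, cap analog, nuclease inhibitor and inorganic pyrophosphatase for 2 h at 37° C., then DNase I 30 min at 37° C. mRNA was ethanol-washed, redissolved and purified, and yield recorded.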

BALB/C mice = assay: In vivo imaging of Fluc-mRNA LNP expression in mice
Method in brief: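 Luciferase expression was imaged by IVIS as total radiation intensity, 5 min after intraperitoneal substrate, at 6, 12, 24, 48, 96 and 168 h. Dosing was intramuscular LNP with 5 μg cap analog Fluc-mRNA in female BALB/C mice; results are fold versus the m6A group.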

DCP2 enzyme = target: T1, DCP2 enzyme (Schizosaccharomyces pombe, UniProt O13828); assay: Decapping enzyme stability test; assay type: biochemical; details: for Decapping rate (%) of DCP2 enzyme: 50 U mRNA decapping enzyme, 37° C., 45 minutes
T1 construct: purchased New England Biolabs
T1 sequence (O13828 1-243 limits assumed): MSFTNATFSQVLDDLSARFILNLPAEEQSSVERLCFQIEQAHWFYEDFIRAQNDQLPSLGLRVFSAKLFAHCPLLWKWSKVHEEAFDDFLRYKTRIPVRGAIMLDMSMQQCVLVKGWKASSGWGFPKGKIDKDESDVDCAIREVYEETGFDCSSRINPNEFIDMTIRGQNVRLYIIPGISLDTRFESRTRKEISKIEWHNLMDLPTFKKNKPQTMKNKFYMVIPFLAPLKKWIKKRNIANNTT
T1 sequence (Q9P805 1-127 partner): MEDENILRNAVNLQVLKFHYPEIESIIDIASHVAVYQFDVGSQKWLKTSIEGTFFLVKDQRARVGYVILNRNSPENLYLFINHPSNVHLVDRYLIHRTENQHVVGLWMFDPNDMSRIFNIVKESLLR
T1 sequence (Q10108 155-180 partner limits assumed): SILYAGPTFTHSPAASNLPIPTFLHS
Method in brief: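 PAGE-purified RNA ([…]) incubated with 50 U mRNA decapping enzyme in 1×MDE buffer at 37° C. for 45 minutes. Products resolved by PAGE, SYBR Green II stained; decapping rate derived from capped-to-decapped band intensity ratio.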

[2] = 6 h, 5 μg Fluc-mRNA LNP intramuscular, mice
[3] = 12 h, 5 μg Fluc-mRNA LNP intramuscular, mice
[4] = 24 h, 5 μg Fluc-mRNA LNP intramuscular, mice
[5] = 48 h, 5 μg Fluc-mRNA LNP intramuscular, mice
[6] = 96 h, 5 μg Fluc-mRNA LNP intramuscular, mice
[7] = 168 h, 5 μg Fluc-mRNA LNP intramuscular, mice

CCN(CC)C(=O)[C@H]1[C@@H](O)[C@H]([n+]2cn(C)c3c(=O)[nH]c(N)nc32)O[C@@H]1COP(=O)(O)OP(=O)(O)OP(=O)(O)OC[C@H]1O[C@@H](n2cnc3c(N)ncnc32)[C@H](OC)[C@@H]1OP(=O)(O)OC[C@H]1O[C@@H](n2cnc3c(=O)[nH]c(N)nc32)[C@H](O)[C@@H]1O [YK-CAP-111]
Particle size [1]: 78.33 nm | PDI [1]: 0.053 | EE [1]: 95.1% | Yield per unit template (T7 RNA polymerase): 173.5 µg | Increase relative to 5227 (in vitro transcription yield) (T7 RNA polymerase): 29.3% | Transcription yield, times that of YK-CAP-101 (T7 RNA polymerase; relative to YK-CAP-101): 5.3 times | Transcription yield, times that of YK-CAP-102 (T7 RNA polymerase; relative to YK-CAP-102): 3.9 times | Transcription yield, times that of YK-CAP-103 (T7 RNA polymerase; relative to YK-CAP-103): 2.0 times | Transcription yield, times that of YK-CAP-104 (T7 RNA polymerase; relative to YK-CAP-104): 2.4 times | Transcription yield, times that of YK-CAP-105 (T7 RNA polymerase; relative to YK-CAP-105): 2.1 times | In vitro transcription yield of mRNA higher than that of compound 14 (T7 RNA polymerase; relative to compound 14): 40.8% | Multiple of total radiation intensity relative to m6A (BALB/C mice; 6 h): 3.7 | Total radiation intensity (BALB/C mice; [2]): 8.61 ×108 p/s | Multiple of total radiation intensity relative to m6A (BALB/C mice; 12 h): 4.4 | Total radiation intensity (BALB/C mice; [3]): 9.34 ×108 p/s | Multiple of total radiation intensity relative to m6A (BALB/C mice; 24 h): 4.2 | Total radiation intensity (BALB/C mice; [4]): 2.75 ×108 p/s | Multiple of total radiation intensity relative to m6A (BALB/C mice; 48 h): 3.8 | Total radiation intensity (BALB/C mice; [5]): 1.95 ×108 p/s | Multiple of total radiation intensity relative to m6A (BALB/C mice; 96 h): 1.1 | Total radiation intensity (BALB/C mice; [6]): 0.27 ×108 p/s | Total radiation intensity (BALB/C mice; [7]): 0.03 ×108 p/s | Total radiation intensity (BALB/C mice; at 12 hours): 9.34 ×10^8 p/s | Total radiation intensity, times that of N-7113 (BALB/C mice; at 12 hours): 2.2 times | Total radiation intensity, times that of YK-CAP-101 (BALB/C mice; at 12 hours): 9.7 times | Total radiation intensity (BALB/C mice; at 48 hours): 1.95 ×10^8 p/s | Total radiation intensity, times that of N-7113 (BALB/C mice; at 48 hours): 4.0 times | Total radiation intensity, times that of YK-CAP-101 (BALB/C mice; at 48 hours): 10.3 times | Decapping rate (%) of DCP2 enzyme (DCP2 enzyme): 11.5% | Decrease relative to N-7113 (decapping rate) (DCP2 enzyme): 32.3%

CO[C@@H]1[C@H](OP(=O)(O)OC[C@H]2O[C@@H](n3cnc4c(=O)[nH]c(N)nc43)[C@H](O)[C@@H]2O)[C@@H](COP(=O)(O)OP(=O)(O)OP(=O)(O)OC[C@H]2O[C@@H]([n+]3cn(C)c4c(=O)[nH]c(N)nc43)[C@H](O)[C@]2(C)NC(C)=O)O[C@H]1n1cnc2c(N)ncnc21 [YK-CAP-106]
Particle size [1]: 68.24 nm | PDI [1]: 0.048 | EE [1]: 97.1% | Yield per unit template (T7 RNA polymerase): 155.5 µg | Increase relative to 5227 (in vitro transcription yield) (T7 RNA polymerase): 15.9% | Multiple of total radiation intensity relative to m6A (BALB/C mice; 6 h): 2.5 | Total radiation intensity (BALB/C mice; [2]): 5.88 ×108 p/s | Multiple of total radiation intensity relative to m6A (BALB/C mice; 12 h): 3.2 | Total radiation intensity (BALB/C mice; [3]): 6.85 ×108 p/s | Multiple of total radiation intensity relative to m6A (BALB/C mice; 24 h): 2.7 | Total radiation intensity (BALB/C mice; [4]): 1.76 ×108 p/s | Multiple of total radiation intensity relative to m6A (BALB/C mice; 48 h): 1.0 | Total radiation intensity (BALB/C mice; [5]): 0.53 ×108 p/s | Multiple of total radiation intensity relative to m6A (BALB/C mice; 96 h): 2.6 | Total radiation intensity (BALB/C mice; [6]): 0.11 ×108 p/s | Total radiation intensity (BALB/C mice; [7]): 0.03 ×108 p/s | Decapping rate (%) of DCP2 enzyme (DCP2 enzyme): 17.3% | Decrease relative to N-7113 (decapping rate) (DCP2 enzyme): 26.5%
